# Experimental data reported in US11560370B1, “5-membered heteroaryl carboxamide compounds for treatment of HBV” (Assembly Biosciences, Inc., priority 2018, dated 2023).
# Tested on: HBV
# Experiment: Viral production from HepAD38 cells, viral load by qPCR of HBV core sequence
# Assay type: cell-based
# Details: 5 days, supernatant HBV DNA by qPCR, read-out: Viral Load EC50 Activity range
# How it was run: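 HepAD38 cells in tetracycline-free medium with 2% FBS, 50,000 cells/well, treated 5 days at 37° C. with compound from 10 μM top concentration (1% DMSO final). Supernatant HBV DNA measured by TaqMan qPCR of core sequence against standards, versus DMSO wells; viability by CellTiter-Glo; EC50/CC50 by four-parameter fit.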
row,Compound,EC50 [nM]
1,Cn1nc(C2CC3CC(O)(COC(F)F)CC3C2)c(C(=O)Nc2ccc(F)c(Cl)c2)c1N (centres unmarked) [AIA-253-1],< 100
2,CCC1OC[C@]2(CC3C[C@H](c4nn(C)c(N)c4C(=O)Nc4ccc(F)c(Cl)c4)C[C@@H]3C2)O1 (some centres unmarked) [AIA-255-5],< 100
3,Cn1nc(C2CC3CNCC3C2)c(C(=O)Nc2ccc(F)c(Cl)c2)c1N (centres unmarked) [AIA-006],500 to 10000
4,"COc1cc(-c2ncc[nH]2)ccc1C1CCC(c2nn(C)c(N)c2C(=O)Nc2ccc(F)c(Cl)c2)C1 (single isomer, unassigned) [AIA-352-2, 3-(3-(4-(1H-Imidazol-2-yl)-2-methoxyphenyl)cyclopentyl)-5-amino-N-(3-chloro-4-fluorophenyl)-1-methyl-1H-pyrazole-4-carboxamide]",< 100
5,Cn1nc(C2CC3CC(N4CCCS4(=O)=O)CC3C2)c(C(=O)Nc2ccc(F)c(Cl)c2)c1N (centres unmarked) [AIA-044],< 100
6,CS(=O)(=O)CC1(O)CC2CC(c3n[nH]c(N)c3C(=O)Nc3ccc(F)c(Cl)c3)CC2C1 (centres unmarked) [AIA-310],< 100
7,Cn1nc(C2CC3CC(NS(=O)(=O)C(F)(F)F)CC3C2)c(C(=O)Nc2ccc(F)c(Cl)c2)c1N (centres unmarked) [AIA-086],< 100
8,Cn1nc(C2CC3CSCC3C2)c(C(=O)Nc2ccc(F)c(Cl)c2)c1N (centres unmarked) [AIA-055],< 100
9,"Cn1nc(C2CCC(c3ccccc3)C2)c(C(=O)Nc2ccc(F)c(Cl)c2)c1N (single isomer, unassigned) [AIA-202D, 5-Amino-N-(3-chloro-4-fluorophenyl)-1-methyl-3-(3-phenylcyclopentyl)-1H-pyrazole-4-carboxamide]",< 100
10,COC1CC2CC(c3nn(C)c(N)c3C(=O)Nc3ccc(F)c(Cl)c3)CC2C1 (centres unmarked) [AIA-285],< 100
11,Cn1nc(C2CC3CC(C(N)=O)CC3C2)c(C(=O)Nc2ccc(F)c(Cl)c2)c1N (centres unmarked) [AIA-015],< 100
12,Cn1nc(C2CC3CCCC3C2)c(C(=O)Nc2ccc(F)c(Cl)c2)c1N (centres unmarked) [AIA-232],< 100

# Same assay, conditions: Hepatitis B virus, HePAD38, 120 h, 5 days, supernatant HBV DNA by qPCR, read-out: Viral Load EC50 Activity range
row,Compound,EC50 [nM]
1,"Cn1nc(C2CC3CC(O)(COCC(F)(F)F)CC3C2)c(C(=O)Nc2ccc(F)c(Cl)c2)c1N (centres unmarked) [AIA-254, 5-Amino-N-(3-chloro-4-fluorophenyl)-3-((2s,5s)-5-hydroxy-5-((2,2,2-trifluoroethoxy)methyl)octahydropentalen-2-yl)-1-methyl-1H-pyrazole-4-carboxamide]",< 100
2,"CN(C)C(=O)CC1CC2CC(c3nn(C)c(N)c3C(=O)Nc3ccc(F)c(Cl)c3)CC2C1 (centres unmarked) [AIA-020, 5-Amino-N-(3-chloro-4-fluorophenyl)-3-(5-(2-(dimethylamino)-2-oxoethyl)octahydropentalen-2-yl)-1-methyl-1H-pyrazole-4-carboxamide]",< 100
3,"Cn1nc(C2CC3CC(N4CCC4)CC3C2)c(C(=O)Nc2ccc(F)c(Cl)c2)c1N (centres unmarked) [AIA-013, 5-Amino-3-(5-(azetidin-1-yl)octahydropentalen-2-yl)-N-(3-chloro-4-fluorophenyl)-1-methyl-1H-pyrazole-4-carboxamide]",100 to 500
4,COc1cc(C(=O)NCCS(C)(=O)=O)ccc1C1CCC(c2nn(C)c(N)c2C(=O)Nc2ccc(F)c(Cl)c2)C1 (centres unmarked) [AIA-387-1],100 to 500
5,"Cn1nc(C2CC3CC(O)(CN4CCCCC4)CC3C2)c(C(=O)Nc2ccc(F)c(Cl)c2)c1N (single isomer, unassigned) [AIA-363-1, 5-Amino-N-(3-chloro-4-fluorophenyl)-3-(5-hydroxy-5-(piperidin-1-ylmethyl)octahydropentalen-2-yl)-1-methyl-1H-pyrazole-4-carboxamide]",100 to 500
6,"CNC(=O)C1CC2CC(c3nn(C)c(N)c3C(=O)Nc3ccc(F)c(Cl)c3)CC2C1 (centres unmarked) [AIA-016, 5-Amino-N-(3-chloro-4-fluorophenyl)-1-methyl-3-(5-(methylcarbamoyl)octahydropentalen-2-yl)-1H-pyrazole-4-carboxamide]",< 100
7,"Cn1nc(C2CC3CN(S(C)(=O)=O)CC3C2)c(C(=O)Nc2ccc(F)c(Cl)c2)c1N (centres unmarked) [AIA-024, 5-Amino-N-(3-chloro-4-fluorophenyl)-1-methyl-3-(2-(methylsulfonyl)octa hydrocyclopenta[c]pyrrol-5-yl)-1H-pyrazole-4-carboxamide]",< 100
8,"Cn1nc([C@H]2CC3C[C@](O)(CS(C)(=O)=O)CC3C2)c(C(=O)Nc2ccc(F)c(Cl)c2)c1N (some centres unmarked) [AIA-227-2, 5-Amino-N-(3-chloro-4-fluorophenyl)-3-((2s,5s)-5-hydroxy-5-(methylsulfonylmethyl)octahydropentalen-2-yl)-1-methyl-1H-pyrazole-4-carboxamide]",< 100
9,"COc1ccc([C@@H]2CC[C@H](c3nn(C)c(N)c3C(=O)Nc3ccc(F)c(Cl)c3)C2)cc1 [AIA-003-C, 5-Amino-N-(3-chloro-4-fluorophenyl)-3-((1S,3R)-3-(4-methoxyphenyl)cyclopentyl)-1-methyl-1H-pyrazole-4-carboxamide]",100 to 500
10,"CN(C)c1ccc(C2CCC(c3nn(C)c(N)c3C(=O)Nc3ccc(F)c(Cl)c3)C2)cc1 (centres unmarked) [AIA-293, 5-Amino-N-(3-chloro-4-fluorophenyl)-3-(3-(4-(dimethylamino)phenyl)cyclopentyl)-1-methyl-1H-pyrazole-4-carboxamide]",< 100
11,"Cn1cnc(C2CCC(c3nn(C)c(N)c3C(=O)Nc3ccc(F)c(Cl)c3)C2)c1 (centres unmarked) [AIA-280, 5-Amino-N-(3-chloro-4-fluoro-phenyl)-1-methyl-3-[3-(1-methylimidazol-4-yl)cyclopentyl]pyrazole-4-carboxamide]",100 to 500
12,"Cn1nc(C2CC3CC(O)(CSCCO)CC3C2)c(C(=O)Nc2ccc(F)c(Cl)c2)c1N (single isomer, unassigned) [AIA-283-1, 5-Amino-N-(3-chloro-4-fluorophenyl)-3-(5-hydroxy-5-(((2-hydroxyethyl)thio)methyl)octahydropentalen-2-yl)-1-methyl-1H-pyrazole-4-carboxamide]",< 100
13,"Cn1nc(C2CC3CC(O)(CS(=O)(=O)C4CC4)CC3C2)c(C(=O)Nc2ccc(F)c(Cl)c2)c1N (single isomer, unassigned) [AIA-252-2, 5-Amino-N-(3-chloro-4-fluorophenyl)-3-(5-((cyclopropylsulfonyl)methyl)-5-hydroxyortahydropentalen-2-yl)-1-methyl-1H-pyrazole-4-carboxamide]",< 100
14,"Cn1nc(C2CC3CC(NCCO)CC3C2)c(C(=O)Nc2ccc(F)c(Cl)c2)c1N (centres unmarked) [AIA-103, 5-Amino-N-(3-chloro-4-fluorophenyl)-3-(5-((2-hydroxyethyl)amino)octahydropentalen-2-yl)-1-methyl-1H-pyrazole-4-carboxamide]",100 to 500
15,"Cn1nc(C2CC3CC(O)(CSCCN4CCOCC4)CC3C2)c(C(=O)Nc2ccc(F)c(Cl)c2)c1N (single isomer, unassigned) [AIA-284-1, 5-Amino-N-(3-chloro-4-fluorophenyl)-3-(5-hydroxy-5-(((2-morpholinoethyl)thio)methyl)octahydropentalen-2-yl)-1-methyl-1H-pyrazole-4-carboxamide]",< 100
16,"COc1cc(-c2cn(C)cn2)ccc1C1CCC(c2nn(C)c(N)c2C(=O)Nc2ccc(F)c(Cl)c2)C1 (centres unmarked) [AIA-365-1, 5-Amino-N-(3-chloro-4-fluorophenyl)-3-(3-(2-methoxy-4-(1-methyl-1H-imidazol-4-yl)phenyl)cyclopentyl)-1-methyl-1H-pyrazole-4-carboxamide]",100 to 500
17,"Cn1nc(C2CC3CC(O)(CS(=O)(=O)CCO)CC3C2)c(C(=O)Nc2ccc(F)c(Cl)c2)c1N (single isomer, unassigned) [AIA-266-1, 5-Amino-N-(3-chloro-4-fluorophenyl)-3-(5-hydroxy-5-(((2-hydroxyethyl)sulfonyl)methyl)octahydropentalen-2-yl)-1-methyl-1H-pyrazole-4-carboxamide]",< 100
18,"Cn1nc(C2CC3CC(O)(CSC(C)(C)C)CC3C2)c(C(=O)Nc2ccc(F)c(Cl)c2)c1N (single isomer, unassigned) [AIA-262-2, 5-Amino-3-(5-((tert-butylthio)methyl)-5-hydroxyoctahydropentalen-2-yl)-N-(3-chloro-4-fluorophenyl)-1-methyl-1H-pyrazole-4-carboxamide]",< 100
19,"CCC1OCC2(CC3CC(c4nn(C)c(N)c4C(=O)Nc4ccc(F)c(Cl)c4)CC3C2)O1 (single isomer, unassigned) [AIA-255-3, 5-Amino-N-(3-chloro-4-fluorophenyl)-3-(2′-ethylhexahydro-1H-spiro[pentalene-2,4′-[1,3]dioxolan]-5-yl)-1-methyl-1H-pyrazole-4-carboxamide]",< 100
20,"Cn1nc(C2CC3CC(O)(CSCC(F)(F)F)CC3C2)c(C(=O)Nc2ccc(F)c(Cl)c2)c1N (centres unmarked) [AIA-258-1, 5-Amino-N-(3-chloro-4-fluorophenyl)-3-(5-hydroxy-5-(((2,2,2-trifluoroethyl)thio)methyl)octahydropentalen-2-yl)-1-methyl-1H-pyrazole-4-carboxamide]",< 100
21,"CC(N1CC2CC(c3nn(C)c(N)c3C(=O)Nc3ccc(F)c(Cl)c3)CC2C1)C(F)(F)F (centres unmarked) [AIA-054, 5-Amino-N-(3-chloro-4-fluorophenyl)-1-methyl-3-(2-(1,1,1-trifluoropropan-2-yl)octahydrocyclopenta[c]pyrrol-5-yl)-1H-pyrazole-4-carboxamide]",< 100
22,"CC(=O)Nc1ccc(C2CCC(c3nn(C)c(N)c3C(=O)Nc3ccc(F)c(Cl)c3)C2)cc1 (centres unmarked) [AIA-294, 3-(3-(4-Acetamidophenyl)cyclopentyl)-5-amino-N-(3-chloro-4-fluorophenyl)-1-methyl-1H-pyrazole-4-carboxamide]",< 100
23,"Cn1nc(C2CC3CC(O)(CS(=O)(=O)C(C)(C)C)CC3C2)c(C(=O)Nc2ccc(F)c(Cl)c2)c1N (single isomer, unassigned) [AIA-260-1, 5-Amino-3-(5-((tert-butylsulfonyl)methyl)-5-hydroxyoctahydropentalen-2-yl)-N-(3-chloro-4-fluorophenyl)-1-methyl-1H-pyrazole-4-carboxamide]",< 100
